Data: US20230407243A1, “GENETIC PLATFORM TO INVESTIGATE THE FUNCTIONS OF BACTERIAL DRUG EFFLUX PUMPS” (priority 2022, published 2023)
Where two headings read alike, the source gives them in different places.

What was measured:
Type in all cases: cell-based, Escherichia coli
wild-type (WT) K-12-Pore = assay: microbe, parasite or virus in culture; conditions: for MIC: Escherichia coli
In short: (§1)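 E. coli strains carrying a genomically integrated constitutive fhuA ΔC/Δ4L pore were grown 18 h in LB at 37 °C, then diluted 1/2000 in MHB II from OD600 ~1.0. Compounds were tested in duplicate, 2-fold serial titration, for 18 h at 37 °C with shaking. MIC came from OD600 with the pre-incubation background subtracted.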

ΔtolC-Pore = assay: microbe, parasite or virus in culture; conditions: for Minimum inhibitory concentration (MIC), Pore ΔtolC: Table 10, with pore; for MIC: Escherichia coli, 18 h, read-out: Minimum inhibitory concentration, ΔtolC-Pore
In short: as §1

EKO-35 araC::mdtEF Pore = assay: MIC susceptibility profiling, porinated efflux platform; conditions: for Fold changes of MICs: EKO-35 araC::mdtEF Pore compared to EKO-35-Pore
In short: as §1

[1] = tested on: EKO-35 araC::acrBD408A Pore; assay: as above; conditions: for Fold changes of MICs: EKO-35 araC::acrBD408A Pore compared to EKO-35-Pore; for MIC: Escherichia coli, read-out: Minimum inhibitory concentration
In short: as §1

EKO-35 araC::mexCD Pore = assay: as above; conditions: for Fold changes of MICs: EKO-35 araC::mexCD Pore compared to EKO-35-Pore
In short: as §1

EKO-35 araC::acrEF Pore = assay: as above; conditions: for Fold changes of MICs: EKO-35 araC::acrEF Pore compared to EKO-35-Pore
In short: as §1

EKO-35 araC::acrB Pore = assay: as above; conditions: for Fold changes of MICs: EKO-35 araC::acr-B Pore compared to EKO-35-Pore
In short: as §1

EKO-35 araC::emrAB Pore = assay: as above; conditions: for Fold changes of MICs: EKO-35 araC::emrAB Pore compared to EKO-35-Pore
In short: as §1

EKO-35 araC::emrKY Pore = assay: as above; conditions: for Fold changes of MICs: EKO-35 araC::emrKY Pore compared to EKO-35-Pore
In short: as §1

EKO-35 araC::macAB Pore = assay: as above; conditions: for Fold changes of MICs: EKO-35 araC::macAB Pore compared to EKO-35-Pore
In short: as §1

EKO-35 araC::mdtBC Pore = assay: as above; conditions: for Fold changes of MICs: EKO-35 araC::mdtBC Pore compared to EKO-35-Pore
In short: as §1

EKO-35 araC::acrD Pore = assay: as above; conditions: for Fold changes of MICs: EKO-35 araC::acrD Pore compared to EKO-35-Pore
In short: as §1

EKO-35 araC::macAB = assay: MIC susceptibility profiling, efflux platform; conditions: for Fold change of MICs: EKO-35 araC::macAB compared to EKO-35
In short: (§2)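 Growth inhibition was scored by OD600, with readings taken before incubation subtracted from those after. Cells were grown in MHB II at 37 °C for 18 h with aeration, against duplicate 2-fold compound series and DMSO-only wells. Inoculum: PBS suspension at OD600 ~1.0 diluted 1/2000.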

EKO-35 araC::mdtEF = assay: MIC susceptibility profiling, efflux platform; conditions: for Fold change of MICs: EKO-35 araC::mdtEF compared to EKO-35
In short: as §2

EKO-35 araC::emrAB = assay: MIC susceptibility profiling, efflux platform; conditions: for Fold change of MICs: EKO-35 araC::emrAB compared to EKO-35
In short: as §2

EKO-35 araC::acrEF = assay: MIC susceptibility profiling, efflux platform; conditions: for Fold change of MICs: EKO-35 araC::acrEF compared to EKO-35
In short: as §2

EKO-35 araC::emrKY = assay: MIC susceptibility profiling, efflux platform; conditions: for Fold change of MICs: EKO-35 araC::emrKY compared to EKO-35
In short: as §2

EKO-35 araC::acrBD408A = assay: MIC susceptibility profiling, efflux platform; conditions: for Fold change of MICs: EKO-35 araC::acrBD408A compared to EKO-35
In short: as §2

[2] = Table 14A, porinated, technical duplicate
[3] = EKO-35 araC::acrBD408A Pore, technical duplicate
[4] = Table 13B, non-porinated, technical duplicate
[5] = Table 13A, non-porinated, technical duplicate

Row | SMILES | Minimum inhibitory concentration (MIC), Pore ΔtolC (ΔtolC-Pore; technical duplicate) | Fold changes of MICs [1] | Fold changes of MICs (EKO-35 araC::mexCD Pore) | Fold changes of MICs (EKO-35 araC::acrB Pore) | Fold changes of MICs (EKO-35 araC::emrAB Pore) | Fold changes of MICs (EKO-35 araC::emrKY Pore) | Fold changes of MICs (EKO-35 araC::macAB Pore) | Fold changes of MICs (EKO-35 araC::mdtBC Pore) | Fold changes of MICs (EKO-35 araC::acrD Pore) | Fold change of MICs (EKO-35 araC::macAB) | Fold change of MICs (EKO-35 araC::mdtEF) | Fold change of MICs (EKO-35 araC::emrAB) | Fold change of MICs (EKO-35 araC::acrEF) | Fold change of MICs (EKO-35 araC::emrKY) | Fold change of MICs (EKO-35 araC::acrBD408A) | MIC (ΔtolC-Pore) | Fold changes of MICs (EKO-35 araC::mdtEF Pore) | MIC [1, 3] | Fold changes of MICs (EKO-35 araC::acrEF Pore) | other results
1 | CC(C)(C)c1cc(C(=O)NNC(=O)Nc2cccc3ccccc23)n(Cc2ccc(F)cc2)n1 [compound 4] | 1.25 µg/mL | 1 fold | 16 fold | 128 fold | 8 fold | 1 fold | 2 fold | 1 fold | 4 fold | 1 fold | 16 fold | 16 fold | 16 fold | 1 fold | 1 fold | – | – | – | – | Minimum inhibitory concentration (MIC), Pore K-12 (wild-type (WT) K-12-Pore; Table 10, with pore, technical duplicate): 320 µg/mL; Minimum inhibitory concentration, K-12 (WT)-Pore (wild-type (WT) K-12-Pore; [2]): 320 µg/mL; Minimum inhibitory concentration, ΔtolC-Pore (ΔtolC-Pore; [2]): 1.25 µg/mL; Minimum inhibitory concentration, EKO-35 araC::mdtEF Pore (EKO-35 araC::mdtEF Pore; [2]): 320 µg/mL; Minimum inhibitory concentration [1, 3]: 2.5 µg/mL; Minimum inhibitory concentration (EKO-35 araC::mexCD Pore; EKO-35 araC::mexCD Pore, technical duplicate): 40 µg/mL; Minimum inhibitory concentration, EKO-35 araC::acrEF Pore (EKO-35 araC::acrEF Pore; [2]): 320 µg/mL; Minimum inhibitory concentration, EKO-35 araC::acrB Pore (EKO-35 araC::acrB Pore; [2]): 320 µg/mL; Minimum inhibitory concentration (EKO-35 araC::emrAB Pore; EKO-35 araC::emrAB Pore, technical duplicate): 20 µg/mL; Minimum inhibitory concentration (EKO-35 araC::emrKY Pore; EKO-35 araC::emrKY Pore, technical duplicate): 1.25 µg/mL; Minimum inhibitory concentration (EKO-35 araC::macAB Pore; EKO-35 araC::macAB Pore, technical duplicate): 5 µg/mL; Minimum inhibitory concentration (EKO-35 araC::mdtBC Pore; EKO-35 araC::mdtBC Pore, technical duplicate): 2.5 µg/mL; Minimum inhibitory concentration, EKO-35 araC::acrD Pore (EKO-35 araC::acrD Pore; [2]): 10 µg/mL; Minimum Inhibitory Concentration, EKO-35 araC::macAB (EKO-35 araC::macAB; [4]): 20 µg/mL; Minimum Inhibitory Concentration, EKO-35 araC::mdtEF (EKO-35 araC::mdtEF; [5]): 320 µg/mL; Minimum Inhibitory Concentration, EKO-35 araC::emrAB (EKO-35 araC::emrAB; [4]): 320 µg/mL; Minimum Inhibitory Concentration, EKO-35 araC::acrEF (EKO-35 araC::acrEF; [5]): 320 µg/mL; Minimum Inhibitory Concentration, EKO-35 araC::emrKY (EKO-35 araC::emrKY; [4]): 20 µg/mL; Minimum Inhibitory Concentration, EKO-35 araC::acrBD408A (EKO-35 araC::acrBD408A; [4]): 20 µg/mL
2 | [H]/N=C(\N/C(=N/[H])NCCCCCCNC(=N)NC(=N)Nc1ccc(Cl)cc1)Nc1ccc(Cl)cc1 [Chlorhexidine] | 0.391 µg/mL | 1 fold | 1 fold | 1 fold | 1 fold | 1 fold | 1 fold | 1 fold | 1 fold | 1 fold | 1 fold | 1 fold | 1 fold | 1 fold | 1 fold | 0.391 µg/mL | 1 fold | 0.391 µg/mL | 1 fold | MIC (wild-type (WT) K-12-Pore; Table 10, with pore, technical duplicate, read-out: Minimum inhibitory concentration (MIC), Pore K-12): 0.781 µg/mL; MIC (wild-type (WT) K-12-Pore; Table 14A, porinated, technical duplicate, read-out: Minimum inhibitory concentration, K-12 (WT)-Pore): 0.781 µg/mL; MIC (EKO-35 araC::mdtEF Pore; Escherichia coli, Table 14A, porinated, technical duplicate, read-out: Minimum inhibitory concentration, EKO-35 araC::mdtEF Pore): 0.391 µg/mL; MIC (EKO-35 araC::mexCD Pore; Escherichia coli, EKO-35 araC::mexCD Pore, technical duplicate, read-out: Minimum inhibitory concentration): 0.391 µg/mL; MIC (EKO-35 araC::acrEF Pore; Escherichia coli, Table 14A, porinated, technical duplicate, read-out: Minimum inhibitory concentration, EKO-35 araC::acrEF Pore): 0.391 µg/mL; MIC (EKO-35 araC::acrB Pore; Escherichia coli, Table 14A, porinated, technical duplicate, read-out: Minimum inhibitory concentration, EKO-35 araC::acrB Pore): 0.391 µg/mL; MIC (EKO-35 araC::emrAB Pore; Escherichia coli, EKO-35 araC::emrAB Pore, technical duplicate, read-out: Minimum inhibitory concentration): 0.391 µg/mL; MIC (EKO-35 araC::emrKY Pore; Escherichia coli, EKO-35 araC::emrKY Pore, technical duplicate, read-out: Minimum inhibitory concentration): 0.391 µg/mL; MIC (EKO-35 araC::macAB Pore; Escherichia coli, EKO-35 araC::macAB Pore, technical duplicate, read-out: Minimum inhibitory concentration): 0.391 µg/mL; MIC (EKO-35 araC::mdtBC Pore; Escherichia coli, EKO-35 araC::mdtBC Pore, technical duplicate, read-out: Minimum inhibitory concentration): 0.391 µg/mL; MIC (EKO-35 araC::acrD Pore; Escherichia coli, Table 14A, porinated, technical duplicate, read-out: Minimum inhibitory concentration, EKO-35 araC::acrD Pore): 0.391 µg/mL; MIC (EKO-35 araC::macAB; Escherichia coli, Table 13B, non-porinated, technical duplicate, read-out: Minimum Inhibitory Concentration, EKO-35 araC::macAB): 0.391 µg/mL; MIC (EKO-35 araC::mdtEF; Escherichia coli, Table 13A, non-porinated, technical duplicate, read-out: Minimum Inhibitory Concentration, EKO-35 araC::mdtEF): 0.391 µg/mL; MIC (EKO-35 araC::emrAB; Escherichia coli, Table 13B, non-porinated, technical duplicate, read-out: Minimum Inhibitory Concentration, EKO-35 araC::emrAB): 0.391 µg/mL; MIC (EKO-35 araC::acrEF; Escherichia coli, Table 13A, non-porinated, technical duplicate, read-out: Minimum Inhibitory Concentration, EKO-35 araC::acrEF): 0.391 µg/mL; MIC (EKO-35 araC::emrKY; Escherichia coli, Table 13B, non-porinated, technical duplicate, read-out: Minimum Inhibitory Concentration, EKO-35 araC::emrKY): 0.391 µg/mL; MIC (EKO-35 araC::acrBD408A; Escherichia coli, Table 13B, non-porinated, technical duplicate, read-out: Minimum Inhibitory Concentration, EKO-35 araC::acrBD408A): 0.391 µg/mL
3 | NCCCNCCCCNCCCN [Spermine] | 2000 µg/mL | – | 1 fold | 1 fold | 1 fold | 1 fold | 1 fold | 1 fold | 1 fold | 1 fold | 1 fold | 1 fold | 1 fold | 1 fold | 1 fold | 2000 µg/mL | 1 fold | 500 µg/mL | 1 fold | MIC (wild-type (WT) K-12-Pore; read-out: Minimum inhibitory concentration (MIC), Pore K-12): 2000 µg/mL; MIC (wild-type (WT) K-12-Pore; read-out: Minimum inhibitory concentration, K-12 (WT)-Pore): 2000 µg/mL
